# Source: US9475783B2, “Antimicrobial agents” (Rutgers, the State University of New Jersey, priority 2012, dated 2016)
# System: MSSA
# Experiment: Test A antibacterial assay, broth microdilution MIC
# Format: cell-based
# Conditions: Staphylococcus aureus, growth read after 24 to 48 hours at OD 600 nm
# Experimental: Test A. Antibacterial Assay. Antibacterial activity can be determined as per Clinical and Laboratory Standards Institute (CLSI) guidelines using a broth microdilution assay in which log-phase bacteria are grown at 37° C. in appropriate medium containing two-fold serial dilutions of a compound to yield final concentrations ranging from 256 to 0.06 μg/mL. For determination of minimal inhibitory concentration (MIC) values, bacterial growth is monitored after 24 to 48 hours by measuring optical density at 600 nm.
row,SMILES,MIC
1,Cc1nc(COc2ccc(F)c(C(=O)NCN(C)C)c2F)sc1-c1ccncc1 [Example 1],> 64 µg/mL
2,O=C(NCn1ccnc1)c1c(F)ccc(OCc2nc3cc(Cl)ccc3s2)c1F [Example 2],> 64 µg/mL
3,CN(C)/C=N/C(=O)c1c(F)ccc(OCc2nc3cc(Cl)ccc3s2)c1F [Example 3],< 0.125 µg/mL
4,CN(C)CNC(=O)c1c(F)ccc(OCc2nc3cc(Cl)ccc3s2)c1F [Example 4],0.125 µg/mL
5,CN(C)/C=N/C(=O)c1c(F)ccc(OCc2nc3cc(Cl)cnc3s2)c1F [Example 5],0.25 µg/mL
6,CN(C)CNC(=O)c1c(F)ccc(OCc2nc3cc(Cl)cnc3s2)c1F [Example 6],0.25 µg/mL
7,CN1CCN(CNC(=O)c2c(F)ccc(OCc3nc4cc(Cl)cnc4s3)c2F)CC1 [Example 8],2 µg/mL
8,CCN(CC)CNC(=O)c1c(F)ccc(OCc2nc3cc(Cl)ccc3s2)c1F [Example 9],0.125 µg/mL
9,COc1ccc(CN(C)CNC(=O)c2c(F)ccc(OCc3nc4cc(Cl)ccc4s3)c2F)cc1 [Example 10],0.25 µg/mL
10,COc1ccc(CN(C)CNC(=O)c2c(F)ccc(OCc3nc4cc(Cl)cnc4s3)c2F)cc1 [Example 11],1 µg/mL
11,CN(CNC(=O)c1c(F)ccc(OCc2nc3cc(Cl)ccc3s2)c1F)Cc1ccc(C(F)(F)F)cc1 [Example 12],0.5 µg/mL
12,CN(CNC(=O)c1c(F)ccc(OCc2nc3cc(Cl)cnc3s2)c1F)Cc1ccc(C(F)(F)F)cc1 [Example 13],1 µg/mL
13,Cc1ccc(CN(C)CNC(=O)c2c(F)ccc(OCc3nc4cc(Cl)ccc4s3)c2F)cc1 [Example 14],0.25 µg/mL
14,Cc1ccc(CN(C)CNC(=O)c2c(F)ccc(OCc3nc4cc(Cl)cnc4s3)c2F)cc1 [Example 15],0.5 µg/mL
15,CCN(CC)CNC(=O)c1c(F)ccc(OCc2nc3cc(Cl)cnc3s2)c1F [Example 16],0.5 µg/mL
16,CC1CCN(CNC(=O)c2c(F)ccc(OCc3nc4cc(Cl)cnc4s3)c2F)CC1 [Example 17],0.5 µg/mL
17,CC1CCN(CNC(=O)c2c(F)ccc(OCc3nc4cc(Cl)ccc4s3)c2F)CC1 [Example 18],0.25 µg/mL
18,CCN(CC)CNC(=O)c1c(F)ccc(OC(C)c2nc(C)c(-c3ccc(C(C)(C)C)cc3)s2)c1F (stereo not shown) [Example 19],1 µg/mL
19,Cc1ccc(CN(C)CNC(=O)c2c(F)ccc(OC(C)c3nc(C)c(-c4ccc(C(C)(C)C)cc4)s3)c2F)cc1 (stereo not shown) [Example 20],1 µg/mL
20,Cc1nc(COc2ccc(F)c(C(=O)NCN3CCC(C)CC3)c2F)sc1-c1ccc(C(C)(C)C)cc1 [Example 21],0.5 µg/mL
21,CCN(CC)CNC(=O)c1c(F)ccc(OCc2nc(-c3ccc(C(F)(F)F)cc3)c(Br)o2)c1F [Example 22],0.125 µg/mL
22,Cc1ccc(CN(C)CNC(=O)c2c(F)ccc(OCc3nc(-c4ccc(C(F)(F)F)cc4)c(Br)o3)c2F)cc1 [Example 23],0.25 µg/mL

row,SMILES,MIC
1,CCN(CC)CNC(=O)c1c(F)ccc(OCc2nc3cc(Cl)ccc3o2)c1F [Example 24],8 µg/mL
2,Cc1ccc(CN(C)CNC(=O)c2c(F)ccc(OCc3nc4cc(Cl)ccc4o3)c2F)cc1 [Example 25],16 µg/mL
3,COc1ccc(CN(C)CNC(=O)c2c(F)ccc(OCc3nc4cc(Cl)ccc4o3)c2F)cc1 [Example 26],16 µg/mL
4,CNCNC(=O)c1c(F)ccc(OCc2nc3cc(Cl)ccc3s2)c1F [Example 27],0.125 µg/mL
5,O=C(NC(c1ccccc1)N1CCOCC1)c1c(F)ccc(OCc2nc3cc(Cl)ccc3s2)c1F (stereo not shown) [Example 28],0.25 µg/mL
6,O=C(NC(c1ccccc1)N1CCOCC1)c1c(F)ccc(OCc2nc3cc(Cl)cnc3s2)c1F (stereo not shown) [Example 29],1 µg/mL
7,O=C(NC(c1cccc(Br)c1)N1CCOCC1)c1c(F)ccc(OCc2nc3cc(Cl)ccc3s2)c1F (stereo not shown) [Example 30],0.5 µg/mL
8,CN1CCN(C(NC(=O)c2c(F)ccc(OCc3nc4cc(Cl)ccc4s3)c2F)c2cccc(Br)c2)CC1 (stereo not shown) [Example 31],0.5 µg/mL
9,CN1CCN(C(NC(=O)c2c(F)ccc(OCc3nc4cc(Cl)cnc4s3)c2F)c2ccccc2)CC1 (stereo not shown) [Example 32],0.5 µg/mL
10,Cc1nc(COc2ccc(F)c(C(=O)NCN(C)C)c2F)sc1-c1ccc(C(C)(C)C)cc1 [Example 34],0.125 µg/mL
11,Cc1nc(COc2ccc(F)c(C(=O)NCN(C)Cc3ccc(C(F)(F)F)cc3)c2F)sc1-c1ccc(C(C)(C)C)cc1 [Example 35],> 64 µg/mL
12,CN1CCN(C(NC(=O)c2c(F)ccc(OCc3nc4cc(Cl)ccc4s3)c2F)c2ccncc2)CC1 (stereo not shown) [Example 37],0.5 µg/mL
13,CN1CCN(C(NC(=O)c2c(F)ccc(OCc3nc4cc(Cl)ccc4s3)c2F)c2ccccc2)CC1 (stereo not shown) [Example 38],8 µg/mL
14,C#CCN(C)CNC(=O)c1c(F)ccc(OCc2nc3cc(Cl)ccc3s2)c1F [Example 39],0.25 µg/mL
15,CC(C)(C)NCNC(=O)c1c(F)ccc(OCc2nc3cc(Cl)ccc3s2)c1F [Example 40],0.5 µg/mL
16,O=C(NCNCc1ccccc1)c1c(F)ccc(OCc2nc3cc(Cl)ccc3s2)c1F [Example 41],0.5 µg/mL
17,CCN(CC)CNC(=O)c1c(Cl)ccc(OCc2nc3cc(Cl)ccc3s2)c1F [Example 42],2 µg/mL
18,Cc1nc(COc2ccc(F)c(C(=O)NCN3CCC(C)CC3)c2F)sc1-c1ccc(C(F)(F)F)cc1 [Example 43],2 µg/mL
19,C/C(=N\C(=O)c1c(F)ccc(OCc2nc3cc(Cl)ccc3s2)c1F)N(C)C [Example 44],2 µg/mL
20,CN(C)/C=N/C(=O)c1c(F)ccc(O/C(=C/N(C)C)c2nc3cc(Cl)ccc3s2)c1F [Example 45],32 µg/mL
21,Cc1csc(COc2ccc(F)c(C(=O)NCN(C)C)c2F)n1 [Example 46],8 µg/mL

# System: Bacillus subtilis FG347 bacteria
# Experiment: Test C FtsZ Z-ring assay (GFP-ZapA fluorescence microscopy)
# Format: cell-based
# Conditions: compound at 3 μg/mL
# Experimental: Test C. FtsZ Z-Ring Assay.
# The impact of a compound on FtsZ Z-ring formation can be determined using a strain of Bacillus subtilis (FG347) that expresses a green fluorescent protein (GFP)-ZapA fusion protein upon induction with xylose. ZapA is known to associate with FtsZ Z-rings in B. subtilis and, thus, serves as a marker for Z-ring formation. In this assay, log-phase FG347 bacteria are treated with differing concentrations of compound for time periods ranging from 1 to 6 hours. At each time point, aliquots are taken from each culture and then viewed with a fluorescence microscope.
# Examples 4 and 6-8 were evaluated for their impact on the polymerization of Staphylococcus aureus FtsZ. […] In addition, Example 5 and 7 were also examined for their impact on FtsZ Z-ring formation in Bacillus subtilis FG347 bacteria. […] These collective results highlight the compounds of the invention as FtsZ-targeting antibacterial agents.
SMILES,bacterial morphology induced,impact on FtsZ Z-ring formation
CN(C)/C=N/C(=O)c1c(F)ccc(OCc2nc3cc(Cl)cnc3s2)c1F [Example 5],"elongated, filamentous morphology",inhibit FtsZ Z-ring formation

# System: not listed separately
# Experiment: Test D formulation of test compounds (solubility in vehicles)
# Format: physicochemical
# Conditions: 10 mM citrate alone
# Experimental: Test D. Formulation of Test Compounds.
# The literature vehicle reported for formulation of 5-chloro-2-(2,4-difluoro-3-aminocarbonylphenoxy)methylpyridylthiazole for i.v. administration consists of 20% DMA, 40% polyethylene glycol and 40% saline. […] Mice that were treated 15 minutes later with a second injection consisting of 150 μl of this vehicle died. In addition, concentrations of 5-chloro-2-(2,4-difluoro-3-aminocarbonylphenoxy)methylpyridylthiazole at or above 2.2 mg/ml in this vehicle were not completely dissolved and existed as a suspension (in a 28 g mouse this would be 15.7 mg/kg). A number of other formulations with 5-chloro-2-(2,4-difluoro-3-aminocarbonylphenoxy)methyl […] were tried, such as 20% DMA, 40% proplyeneglycol in 8% Cremophor-EL. […] Because of the limited solubility and the absence of a suitable vehicle, the literature study where it was reported that a 30 mg/kg dose of 5-chloro-2-(2,4-difluoro-3-aminocarbonylphenoxy)methylpyridylthiazole was delivered to mice in a single injection could not be repeated. […] In some instances the addition of 10-30% propylene glycocol did allow for greater retention of solubility of the test compounds. Example 4 was also found to formulate well at a 2.0 mg/ml concentration in 10 mM malic acid with 20% propylene glycol and with 10 mM p-toluenesulphonate alone. Example 6 did formulate well in 10 mM citrate alone at a concentration of 2.0 mg/ml. […] The ability of mice to tolerate this vehicle did allow for multiple dosing in the assessment of Example 6 in vivo and to actually deliver higher doses of the Example 6 because of the compatibility of a predominately aqueous vehicle.
row,SMILES,concentration formulated well
1,CN(C)CNC(=O)c1c(F)ccc(OCc2nc3cc(Cl)cnc3s2)c1F [Example 6],2000 µg/mL

# Same assay, conditions: 10 mM malic acid with 20% propylene glycol
row,SMILES,concentration formulated well
1,CN(C)CNC(=O)c1c(F)ccc(OCc2nc3cc(Cl)ccc3s2)c1F [Example 4],2000 µg/mL

# Same assay, conditions: 10 mM p-toluenesulphonate alone
row,SMILES,concentration formulated well
1,CN(C)CNC(=O)c1c(F)ccc(OCc2nc3cc(Cl)ccc3s2)c1F [Example 4],2000 µg/mL

# Same assay, conditions: 10 mM solutions of citrate, methane sulfonate, p-toluene sulphonate, phosphoric acid, and tartaric acid
row,SMILES,concentration readily formulated
1,CN(C)CNC(=O)c1c(F)ccc(OCc2nc3cc(Cl)ccc3s2)c1F [Example 4],2000 µg/mL
2,CN(C)CNC(=O)c1c(F)ccc(OCc2nc3cc(Cl)cnc3s2)c1F [Example 6],2000 µg/mL

# System: MSSA (S. aureus)
# Experiment: Test E in vivo efficacy, murine septicemia model of staphylococcal infection
# Conditions: MSSA-infected mice, i.v. tail vein, four doses at 15 minute interval in 10 mM citrate; 24 h monitoring
# Experimental: Test E. In Vivo Efficacy in the Mouse Peritonitis or Mouse Septicemia Model.
# Assessment of in vivo efficacy was performed using femal Swiss Webster mice (obtained from Taconic Farms, Germantown, Pa.) employing a murine septicemia model of staphylococcal infection. For bioassays examining efficacy against MSSA, each mouse was inoculated intraperitoneally with 500 μl of an inoculum containing 1.0×10^8 CFU per ml of S. aureus. All of the in vivo efficacy studies include a negative control group of infected mice treated intravenously either with vehicle alone (6 mice) or untreated (6 mice), as well as a positive control groups of infected mice treated with 200 ul of […] of vancomycin administered intravenously (4 mice) and a second control group using 2.0 mg/ml of oxacillin (4 mice). After the mice were infected, groups of six mice are treated by tail vein injection with 300 ul of a solution containing 2.0 mg of Example 6 in 10 mM citrate. Mice received four doses Example 6 administered with a 15 minute interval. Control mice are treated with vancomycin qd, oxacillin b.i.d, or vehicle alone. […] Animals are given food and water ad libitum. Survival within each experimental group is monitored over a 24 hout time period. Monitoring of the mice began 4 hours after the start of experiment. All of the effective mice treated with Example 6 survived the infection (5/5, 100% survival). All of the oxacillin-treated (4/4) and vancomycin-treated mice (4/4) survived the infection. All of the vehicle controls died within 12 hours, with 0/6 or 0% survival. Among the infected mice that receive no treatment, only 1/6 survived (16.7% survival).
row,SMILES,survival
1,CN(C)CNC(=O)c1c(F)ccc(OCc2nc3cc(Cl)cnc3s2)c1F [Example 6],100%

# Same assay, conditions: MSSA-infected mice, i.v. treatment; 24 h monitoring
row,SMILES,mice surviving the infection / mice
1,CN(C)CNC(=O)c1c(F)ccc(OCc2nc3cc(Cl)cnc3s2)c1F [Example 6],5/5
2,"Cc1onc(-c2ccccc2)c1C(=O)N[C@@H]1C(=O)N2[C@@H]1SC(C)(C)[C@@H]2C(=O)O [oxacillin, reference compound]",4/4
3,"CN[C@H](CC(C)C)C(=O)N[C@H]1C(=O)N[C@@H](CC(N)=O)C(=O)N[C@H]2C(=O)N[C@H]3C(=O)N[C@H](C(=O)N[C@H](C(=O)O)c4cc(O)cc(O)c4-c4cc3ccc4O)[C@H](O)c3ccc(c(Cl)c3)Oc3cc2cc(c3O[C@@H]2O[C@H](CO)[C@@H](O)[C@H](O)[C@H]2O[C@H]2C[C@](C)(N)[C@H](O)[C@H](C)O2)Oc2ccc(cc2Cl)[C@H]1O [vancomycin, reference compound]",4/4

# Same assay, conditions: group of six mice, 300 ul i.v. of 2.0 mg solution in 10 mM citrate, four doses
row,SMILES,death during the course of treatment
1,CN(C)CNC(=O)c1c(F)ccc(OCc2nc3cc(Cl)cnc3s2)c1F [Example 6],One of the mice treated with Example 6 died during the course of treatment
